One experiment concerns the target T1, 5-HT5 (Homo sapiens, UniProt P47898).
T1 construct: expressed in transfected cells
Kind of experiment: Radioligand binding assay, 5-HT5 subtype. The protocol:
(§1) [^3H] […] The reactions are incubated at room temperature for 3 hr. and then counted in a Trilux Microbeta™ scintillation counter to detect receptor-bound radioligand. Binding data is analyzed by computer-assisted 4 parameter fit analysis (ID Business Solutions Ltd, Guildford, Surrey, UK). […]
(§2) Affinity for other serotonin receptor subtypes as well as for alpha 1 & 2 adrenergic receptors can readily be determined by modification of the above described radioligand receptor binding assay using membranes derived from cells stably expressing the desired receptor subtype including the 5-HT1A, 5-HT1B, and 5-HT1D subtypes, as well as the 5-HT2A, 5-HT2B, 5-HT2C, 5-HT4, 5-HT5, and 5-HT6 receptor subtypes. […]

For another experiment, the target named is alpha 1 adrenergic. The experiment is described as follows: Radioligand binding assay, alpha 1 adrenergic. The protocol: as §1, §2
For another experiment, the target named is T2, 5-HT2B (Homo sapiens, UniProt P41595).
T2 construct: expressed in transfected cells
T2 sequence (P41595 whole entry, species assumed): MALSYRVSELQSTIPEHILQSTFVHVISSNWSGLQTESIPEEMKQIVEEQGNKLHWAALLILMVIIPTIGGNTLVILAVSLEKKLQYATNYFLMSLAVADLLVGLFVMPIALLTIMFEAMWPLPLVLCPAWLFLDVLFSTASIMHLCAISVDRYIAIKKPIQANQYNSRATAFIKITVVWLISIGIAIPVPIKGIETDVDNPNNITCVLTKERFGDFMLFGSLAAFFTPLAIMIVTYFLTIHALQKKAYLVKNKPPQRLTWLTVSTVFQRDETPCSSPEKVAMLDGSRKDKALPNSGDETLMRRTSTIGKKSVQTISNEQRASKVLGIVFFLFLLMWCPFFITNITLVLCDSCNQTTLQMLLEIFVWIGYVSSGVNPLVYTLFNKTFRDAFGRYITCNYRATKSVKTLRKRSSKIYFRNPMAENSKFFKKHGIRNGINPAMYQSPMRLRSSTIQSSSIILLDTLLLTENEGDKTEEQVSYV
The experiment is described as follows: Radioligand binding assay, 5-HT2B subtype. The protocol:
as §1, §2

Experiment [1] concerns male Harlan Sprague-Dawley rats. The experiment is described as follows: Animal model of dural plasma protein extravasation (PPE). Type of experiment: in vivo, rat. From the text: The dural plasma protein extravasation model is an established model for migraine. The ability of a test compound to reduce extravasation of plasma proteins into the dura under assay conditions is considered indicative of the compound's ability to reduce or prevent the dural inflammation thought to be symptomatic of migraine. (see Johnson, K. W., et al., Neuroreport, 8 (1997) 2237-2240.)
To assay compounds for their ability to reduce or prevent dural plasma protein extravasation, male Harlan Sprague-Dawley rats (250-350 g) are anesthetized with sodium pentobarbital (65 mg/kg, i.p.) and placed in a stereotaxic frame (David Kopf Instruments) with the incisor bar set at −2.5 mm. Following a midline sagittal scalp incision, 2 pairs of bilateral holes are drilled through the skull (3.2 mm posterially, 1.8 and 3.8 mm laterally, all coordinates referenced to bregma). […]
The amount of FITC-BSA for each sample is quantified with a fluorescence microscope (Zeiss) equipped with a grating monochromator, a spectrophotometer, and a computer driven stage. Fluorescence measurements are taken at 25 points in a 5×5 grid in 500 μm steps on each dural sample with an excitation wavelength of approximately 490 nm and emission intensity measured at approximately 535 nm. The mean and standard deviation of the 25 measurements are determined. […]

The target of the next experiment is T3, 5-HT2A (Homo sapiens, UniProt P28223).
T3 construct: expressed in transfected cells
T3 sequence (P28223 whole entry, species assumed): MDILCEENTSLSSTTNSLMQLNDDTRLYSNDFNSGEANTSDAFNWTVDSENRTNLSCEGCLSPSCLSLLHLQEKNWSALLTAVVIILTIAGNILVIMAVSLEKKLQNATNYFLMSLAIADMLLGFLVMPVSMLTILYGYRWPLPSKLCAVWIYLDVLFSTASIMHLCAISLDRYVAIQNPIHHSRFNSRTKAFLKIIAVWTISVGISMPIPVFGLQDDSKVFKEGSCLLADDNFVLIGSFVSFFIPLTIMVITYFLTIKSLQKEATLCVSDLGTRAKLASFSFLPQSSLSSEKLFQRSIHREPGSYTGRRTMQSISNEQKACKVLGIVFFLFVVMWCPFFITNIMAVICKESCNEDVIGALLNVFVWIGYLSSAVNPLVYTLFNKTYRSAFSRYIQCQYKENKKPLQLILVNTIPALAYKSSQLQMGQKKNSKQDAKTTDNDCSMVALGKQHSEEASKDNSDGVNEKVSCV
The experiment is described as follows: Radioligand binding assay, 5-HT2A subtype. The protocol:
as §1, §2

Another experiment deals with alpha 2 adrenergic. Kind of experiment: Radioligand binding assay, alpha 2 adrenergic. The protocol: as §1, §2

Here are results for one molecule from US8048884B2, “Substituted piperazinyl pyrazines and pyridines as 5-HT7 receptor antagonists” (Eli Lilly and Company, priority 2007, dated 2011).

T1 sequence (P47898 whole entry, species assumed): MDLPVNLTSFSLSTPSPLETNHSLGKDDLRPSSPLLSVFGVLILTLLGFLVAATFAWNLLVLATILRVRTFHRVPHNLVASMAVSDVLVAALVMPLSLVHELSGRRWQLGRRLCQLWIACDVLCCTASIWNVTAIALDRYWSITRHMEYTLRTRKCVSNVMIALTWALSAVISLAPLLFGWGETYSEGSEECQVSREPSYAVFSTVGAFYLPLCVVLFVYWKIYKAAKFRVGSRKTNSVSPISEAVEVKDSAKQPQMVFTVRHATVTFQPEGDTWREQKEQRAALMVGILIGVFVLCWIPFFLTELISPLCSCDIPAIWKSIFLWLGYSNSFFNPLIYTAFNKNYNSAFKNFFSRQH

Turning to `COCc1ccc(-c2nccnc2N2CCN(CCN(C)S(=O)(=O)c3cnn(C)c3)CC2)cc1.Cl` [Example 25, 1-Methyl-1H-pyrazole-4-sulfonic acid {2-[3′-(4-methoxymethyl-phenyl)-2,3,5,6-tetrahydro-[1,2′]bipyrazinyl-4-yl]-ethyl}-methyl-amide hydrochloride], the Ki on 5-HT5 was 3.32 µM; at alpha 1 adrenergic, 2.33 µM; on 5-HT2B, greater than 6.81 µM; at 5-HT2A, greater than 7.47 µM; on alpha 2 adrenergic, greater than 5.29 µM. Also, in experiment [1] (at ID100 of 1 mg/Kg, saline controls about 2.0), the “ratio of extravasation, stimulated side over unstimulated side” value is “about 1.1”. Moreover, the ID100 in experiment [1] (rat dural plasma protein extravasation, route not given) stood at 1 mg/kg.
